Data reported in ChEMBL document CHEMBL1201862, “PubChem BioAssay data set” (2004).
Active and inactive are the calls of the source.

Experiments:
[1] = biological target: T1, Apoptotic protease-activating factor 1 (Homo sapiens, UniProt O14727); assay type: functional
T1 sequence (O14727 whole entry): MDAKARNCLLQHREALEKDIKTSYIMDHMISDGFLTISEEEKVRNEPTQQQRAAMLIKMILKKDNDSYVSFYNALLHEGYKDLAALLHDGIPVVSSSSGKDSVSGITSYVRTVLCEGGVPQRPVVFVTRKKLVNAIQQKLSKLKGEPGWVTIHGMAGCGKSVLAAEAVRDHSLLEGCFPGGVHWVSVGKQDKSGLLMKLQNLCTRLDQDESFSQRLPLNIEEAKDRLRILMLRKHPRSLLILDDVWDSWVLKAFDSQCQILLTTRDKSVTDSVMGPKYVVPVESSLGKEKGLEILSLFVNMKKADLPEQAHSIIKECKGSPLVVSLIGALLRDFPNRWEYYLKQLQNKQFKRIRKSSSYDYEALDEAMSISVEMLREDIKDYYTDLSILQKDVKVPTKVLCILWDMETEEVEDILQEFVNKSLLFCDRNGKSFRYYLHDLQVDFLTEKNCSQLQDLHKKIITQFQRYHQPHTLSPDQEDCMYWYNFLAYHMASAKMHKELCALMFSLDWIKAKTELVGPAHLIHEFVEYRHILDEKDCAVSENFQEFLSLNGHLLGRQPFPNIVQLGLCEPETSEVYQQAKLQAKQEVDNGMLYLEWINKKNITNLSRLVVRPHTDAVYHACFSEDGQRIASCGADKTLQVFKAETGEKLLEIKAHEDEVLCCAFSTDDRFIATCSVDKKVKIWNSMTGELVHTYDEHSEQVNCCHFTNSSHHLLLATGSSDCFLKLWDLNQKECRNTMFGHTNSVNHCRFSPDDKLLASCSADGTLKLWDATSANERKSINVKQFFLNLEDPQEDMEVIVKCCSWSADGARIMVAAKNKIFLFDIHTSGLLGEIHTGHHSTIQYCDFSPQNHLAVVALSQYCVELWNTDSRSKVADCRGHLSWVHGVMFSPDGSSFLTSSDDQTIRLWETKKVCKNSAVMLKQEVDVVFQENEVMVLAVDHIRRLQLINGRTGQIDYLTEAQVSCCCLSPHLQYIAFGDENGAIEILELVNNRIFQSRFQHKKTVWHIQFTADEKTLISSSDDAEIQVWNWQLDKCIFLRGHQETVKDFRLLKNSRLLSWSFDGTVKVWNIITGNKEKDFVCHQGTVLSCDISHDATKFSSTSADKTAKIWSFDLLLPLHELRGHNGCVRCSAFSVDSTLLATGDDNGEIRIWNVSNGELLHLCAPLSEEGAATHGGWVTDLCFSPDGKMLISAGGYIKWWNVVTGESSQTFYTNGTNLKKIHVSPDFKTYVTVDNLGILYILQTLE

[2] = biological target: T2, Voltage-gated N-type calcium channel alpha-1B subunit/Amyloid beta A4 precursor protein-binding family A member 1 (Homo sapiens, UniProt Q00975+Q02410); assay type: protein assay
T2 sequence (Q00975 whole entry): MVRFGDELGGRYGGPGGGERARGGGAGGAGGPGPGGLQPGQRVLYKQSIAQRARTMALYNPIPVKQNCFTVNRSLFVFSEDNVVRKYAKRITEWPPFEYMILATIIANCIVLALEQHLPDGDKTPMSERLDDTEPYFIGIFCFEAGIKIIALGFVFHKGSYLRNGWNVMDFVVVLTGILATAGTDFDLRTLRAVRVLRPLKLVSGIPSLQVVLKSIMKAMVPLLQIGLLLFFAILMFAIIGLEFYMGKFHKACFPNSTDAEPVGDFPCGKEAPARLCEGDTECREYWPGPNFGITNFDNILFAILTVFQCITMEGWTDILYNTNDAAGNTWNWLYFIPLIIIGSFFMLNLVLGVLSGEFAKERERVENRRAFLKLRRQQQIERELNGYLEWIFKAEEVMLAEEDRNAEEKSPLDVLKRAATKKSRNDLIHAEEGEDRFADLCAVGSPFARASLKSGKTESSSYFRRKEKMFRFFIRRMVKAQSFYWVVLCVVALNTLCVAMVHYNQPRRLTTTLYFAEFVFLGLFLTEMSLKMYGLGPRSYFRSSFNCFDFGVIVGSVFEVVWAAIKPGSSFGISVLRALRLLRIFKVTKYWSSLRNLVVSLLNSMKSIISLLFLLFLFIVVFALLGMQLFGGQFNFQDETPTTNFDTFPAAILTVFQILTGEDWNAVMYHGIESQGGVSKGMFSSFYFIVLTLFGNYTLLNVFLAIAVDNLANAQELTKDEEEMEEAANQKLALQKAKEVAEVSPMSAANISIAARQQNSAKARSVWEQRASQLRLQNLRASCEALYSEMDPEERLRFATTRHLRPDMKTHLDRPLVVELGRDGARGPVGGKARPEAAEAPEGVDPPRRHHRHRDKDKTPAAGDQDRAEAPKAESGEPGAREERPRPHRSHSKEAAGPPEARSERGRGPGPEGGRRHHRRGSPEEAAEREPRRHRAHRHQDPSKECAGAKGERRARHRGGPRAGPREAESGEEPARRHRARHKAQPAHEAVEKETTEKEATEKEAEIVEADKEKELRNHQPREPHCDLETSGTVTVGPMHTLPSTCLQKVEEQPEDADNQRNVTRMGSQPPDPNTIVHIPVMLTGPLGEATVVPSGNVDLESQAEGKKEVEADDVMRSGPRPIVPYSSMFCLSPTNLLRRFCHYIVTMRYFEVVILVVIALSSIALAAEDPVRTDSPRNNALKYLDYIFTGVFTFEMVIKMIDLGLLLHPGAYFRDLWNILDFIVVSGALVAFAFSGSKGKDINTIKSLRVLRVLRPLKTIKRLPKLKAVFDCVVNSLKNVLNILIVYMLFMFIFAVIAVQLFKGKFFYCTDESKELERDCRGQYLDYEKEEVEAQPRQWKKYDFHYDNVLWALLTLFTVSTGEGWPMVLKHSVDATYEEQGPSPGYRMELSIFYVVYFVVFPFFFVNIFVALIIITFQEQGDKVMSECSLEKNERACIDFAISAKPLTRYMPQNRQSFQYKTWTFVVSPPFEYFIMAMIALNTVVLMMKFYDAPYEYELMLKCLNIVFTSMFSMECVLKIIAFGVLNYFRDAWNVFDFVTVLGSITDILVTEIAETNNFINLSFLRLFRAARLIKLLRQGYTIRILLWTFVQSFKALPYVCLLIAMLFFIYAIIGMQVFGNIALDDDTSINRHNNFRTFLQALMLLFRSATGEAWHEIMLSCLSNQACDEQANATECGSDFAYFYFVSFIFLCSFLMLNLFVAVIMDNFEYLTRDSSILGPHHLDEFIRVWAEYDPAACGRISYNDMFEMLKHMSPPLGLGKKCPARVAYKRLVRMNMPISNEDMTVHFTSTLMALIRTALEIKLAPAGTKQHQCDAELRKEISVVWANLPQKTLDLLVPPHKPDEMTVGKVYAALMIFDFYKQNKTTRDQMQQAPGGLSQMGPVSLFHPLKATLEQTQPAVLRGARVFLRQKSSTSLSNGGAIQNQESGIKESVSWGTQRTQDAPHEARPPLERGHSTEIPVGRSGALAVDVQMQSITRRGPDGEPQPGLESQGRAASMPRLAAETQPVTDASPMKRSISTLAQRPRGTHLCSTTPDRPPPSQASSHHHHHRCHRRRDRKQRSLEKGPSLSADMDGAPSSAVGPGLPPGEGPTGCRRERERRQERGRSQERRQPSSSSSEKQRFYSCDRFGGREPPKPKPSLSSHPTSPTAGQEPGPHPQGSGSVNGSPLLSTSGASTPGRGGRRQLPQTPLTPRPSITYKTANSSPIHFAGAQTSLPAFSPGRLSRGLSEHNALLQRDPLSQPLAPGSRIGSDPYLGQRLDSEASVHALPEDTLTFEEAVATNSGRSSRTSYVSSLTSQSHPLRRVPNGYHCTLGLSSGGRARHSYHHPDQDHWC
T2 sequence (Q02410 whole entry): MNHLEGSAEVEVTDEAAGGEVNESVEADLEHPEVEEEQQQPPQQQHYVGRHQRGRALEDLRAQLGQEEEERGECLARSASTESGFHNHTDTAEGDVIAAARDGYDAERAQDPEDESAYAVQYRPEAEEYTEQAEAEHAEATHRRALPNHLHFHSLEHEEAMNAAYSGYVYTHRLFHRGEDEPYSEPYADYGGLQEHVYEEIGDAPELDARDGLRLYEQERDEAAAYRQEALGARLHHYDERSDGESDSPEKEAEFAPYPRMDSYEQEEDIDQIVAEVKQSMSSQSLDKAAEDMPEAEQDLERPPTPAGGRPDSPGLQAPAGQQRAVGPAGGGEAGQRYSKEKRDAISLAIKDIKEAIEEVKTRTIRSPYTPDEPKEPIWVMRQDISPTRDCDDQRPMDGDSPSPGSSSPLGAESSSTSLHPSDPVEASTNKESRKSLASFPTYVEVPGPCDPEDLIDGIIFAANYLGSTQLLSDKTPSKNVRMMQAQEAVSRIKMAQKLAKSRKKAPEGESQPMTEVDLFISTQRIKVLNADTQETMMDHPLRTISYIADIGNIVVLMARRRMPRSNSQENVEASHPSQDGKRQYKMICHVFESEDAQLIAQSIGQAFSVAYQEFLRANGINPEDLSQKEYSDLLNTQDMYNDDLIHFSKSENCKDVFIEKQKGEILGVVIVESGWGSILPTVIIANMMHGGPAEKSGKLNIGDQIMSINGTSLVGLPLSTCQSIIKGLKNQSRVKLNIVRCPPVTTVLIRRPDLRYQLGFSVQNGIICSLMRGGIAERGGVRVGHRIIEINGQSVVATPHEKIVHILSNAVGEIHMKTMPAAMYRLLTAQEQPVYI

[3] = biological target: T2, Voltage-gated N-type calcium channel alpha-1B subunit/Amyloid beta A4 precursor protein-binding family A member 1; assay type: protein assay; remark: listed apart in the source
[4] = biological target: Large T antigen (Simian virus 40, UniProt P03070); assay type: functional, Betapolyomavirus macacae;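 further: Confirmatory-stage PubChem screen for compounds that inhibit SV40 T antigen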
Large T antigen, sequence (P03070 whole entry): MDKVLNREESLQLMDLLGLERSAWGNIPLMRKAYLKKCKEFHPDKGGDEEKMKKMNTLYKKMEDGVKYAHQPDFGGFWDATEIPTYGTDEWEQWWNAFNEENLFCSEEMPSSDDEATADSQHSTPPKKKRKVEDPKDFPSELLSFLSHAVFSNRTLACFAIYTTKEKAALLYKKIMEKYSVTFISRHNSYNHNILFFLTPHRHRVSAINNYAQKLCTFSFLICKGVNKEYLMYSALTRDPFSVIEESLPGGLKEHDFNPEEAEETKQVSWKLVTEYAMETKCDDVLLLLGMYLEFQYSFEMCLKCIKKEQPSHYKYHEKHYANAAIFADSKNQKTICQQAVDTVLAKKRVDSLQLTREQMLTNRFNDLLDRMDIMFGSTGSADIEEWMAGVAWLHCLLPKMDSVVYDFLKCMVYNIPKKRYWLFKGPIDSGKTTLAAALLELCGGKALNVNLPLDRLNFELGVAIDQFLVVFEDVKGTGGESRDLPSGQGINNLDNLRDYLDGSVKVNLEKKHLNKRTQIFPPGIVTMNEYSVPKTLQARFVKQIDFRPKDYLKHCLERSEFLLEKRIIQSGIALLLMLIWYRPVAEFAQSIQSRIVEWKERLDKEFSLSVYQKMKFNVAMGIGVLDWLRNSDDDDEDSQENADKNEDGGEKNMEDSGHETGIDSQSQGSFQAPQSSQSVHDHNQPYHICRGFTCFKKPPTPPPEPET

[5] = biological target: T3, Orexin/Hypocretin receptor type 1 (Homo sapiens, UniProt O43613); test: Homogeneous Time Resolved Fluorescence (HTRF)-based cell-based high throughput dose response assay for antagonists of the orexin 1 receptor (OX1R; HCRTR1). [Related pubchem assays (depositor defined):AID434989, AID435008, AID463079, AID485270, AID492963, AID492964, AID492965, AID493232, AID504717, AID504718]; assay type: functional
T3 sequence (O43613 whole entry): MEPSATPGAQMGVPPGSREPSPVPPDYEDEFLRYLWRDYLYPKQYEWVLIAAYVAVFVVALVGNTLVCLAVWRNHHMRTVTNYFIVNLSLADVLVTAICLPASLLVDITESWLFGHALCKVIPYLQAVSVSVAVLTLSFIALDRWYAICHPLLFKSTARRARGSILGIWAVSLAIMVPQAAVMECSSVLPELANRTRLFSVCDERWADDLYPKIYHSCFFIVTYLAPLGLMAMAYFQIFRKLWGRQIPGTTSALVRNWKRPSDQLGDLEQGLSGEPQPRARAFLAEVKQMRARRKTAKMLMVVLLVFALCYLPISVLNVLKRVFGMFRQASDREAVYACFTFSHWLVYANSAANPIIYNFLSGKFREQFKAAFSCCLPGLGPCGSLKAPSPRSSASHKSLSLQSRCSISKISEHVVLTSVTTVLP

[6] = tested on: CHO-K1; test: (§1) Counterscreen for antagonists of the orexin 1 receptor (OX1R; HCRTR1): Homogeneous time resolved fluorescence (HTRF)-based cell-based dose response assay to identify antagonists of the parental CHO-K1 cell line. [Related pubchem assays (depositor defined):AID434989, AID435008, AID463079, AID485270, AID492963, AID492964, AID492965, AID493232, AID504699, AID504701]; assay type: functional; conditions: Cricetulus griseus
[7] = biological target: T3, Orexin/Hypocretin receptor type 1; test: Fluorescence-based cell-based high throughput dose response assay for antagonists of the orexin 1 receptor (OX1R; HCRTR1). [Related pubchem assays (depositor defined):AID434989, AID435008, AID463079, AID485270, AID492963, AID492964, AID492965, AID493232, AID504717, AID504718]; assay type: functional
[8] = as §1, with “Fluorescence-based” for “Homogeneous time resolved fluorescence (HTRF)-based”, “cell-based high throughput” for “cell-based”, “CHO” for “CHO-K1”; assay type: functional
[9] = biological target: T4, Orexin receptor type 2 (Homo sapiens, UniProt O43614); test: Counterscreen assay for antagonists of the orexin 1 receptor (OX1R; HCRTR1): Homogeneous Time Resolved Fluorescence (HTRF)-based cell-based dose response assay for antagonists of the orexin 2 receptor (OX2R; HCRTR2), run by assay provider.; assay type: functional
T4 sequence (O43614 whole entry): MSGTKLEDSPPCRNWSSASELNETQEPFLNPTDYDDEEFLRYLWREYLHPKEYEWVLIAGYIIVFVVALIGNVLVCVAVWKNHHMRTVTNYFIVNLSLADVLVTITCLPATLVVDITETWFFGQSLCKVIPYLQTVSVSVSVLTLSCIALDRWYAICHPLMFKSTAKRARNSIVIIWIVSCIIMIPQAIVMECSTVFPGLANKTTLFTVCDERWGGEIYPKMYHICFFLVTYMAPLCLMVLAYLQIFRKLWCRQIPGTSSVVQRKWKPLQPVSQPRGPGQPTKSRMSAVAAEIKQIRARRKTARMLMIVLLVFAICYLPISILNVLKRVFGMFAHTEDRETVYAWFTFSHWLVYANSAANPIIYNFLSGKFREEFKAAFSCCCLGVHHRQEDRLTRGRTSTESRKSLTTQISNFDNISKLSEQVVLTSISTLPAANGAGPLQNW

[10] = biological target: T4, Orexin receptor type 2; test: Counterscreen assay for antagonists of the orexin 1 receptor (OX1R; HCRTR1): Fluorescence-based cell-based dose response assay for antagonists of the orexin 2 receptor (OX2R; HCRTR2), run by assay provider.; assay type: functional
[11] = biological target: Glucose-6-phosphate 1-dehydrogenase (Homo sapiens, UniProt P11413); test: human G6PD enzyme inhibitors, dose response, selectivity assay for P. falciparum G6PD inhibitor project, biochemical, fluorescence (AID 504792); assay type: functional
Glucose-6-phosphate 1-dehydrogenase, sequence (P11413 whole entry): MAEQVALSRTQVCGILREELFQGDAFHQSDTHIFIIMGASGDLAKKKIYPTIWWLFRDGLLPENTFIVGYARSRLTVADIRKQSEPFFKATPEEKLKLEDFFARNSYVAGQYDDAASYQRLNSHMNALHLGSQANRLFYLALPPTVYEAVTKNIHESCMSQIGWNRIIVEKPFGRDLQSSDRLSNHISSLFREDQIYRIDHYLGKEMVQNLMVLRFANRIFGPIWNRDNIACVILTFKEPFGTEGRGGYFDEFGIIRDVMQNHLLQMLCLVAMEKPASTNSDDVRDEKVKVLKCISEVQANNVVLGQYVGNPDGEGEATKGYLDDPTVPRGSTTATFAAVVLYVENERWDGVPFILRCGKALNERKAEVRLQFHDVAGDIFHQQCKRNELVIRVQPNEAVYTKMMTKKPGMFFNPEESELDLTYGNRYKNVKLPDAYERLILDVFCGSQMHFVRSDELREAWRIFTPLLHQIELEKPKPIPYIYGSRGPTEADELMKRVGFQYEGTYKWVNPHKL

[12] = biological target: T5, Replicative DNA helicase DnaB (Mycobacterium tuberculosis, UniProt P9WMR3); test: DnaB intein splicing inhibitors, dose response, biochemical, cell-free fluorescence (AID 449749); assay type: functional
T5 sequence (P9WMR3 whole entry): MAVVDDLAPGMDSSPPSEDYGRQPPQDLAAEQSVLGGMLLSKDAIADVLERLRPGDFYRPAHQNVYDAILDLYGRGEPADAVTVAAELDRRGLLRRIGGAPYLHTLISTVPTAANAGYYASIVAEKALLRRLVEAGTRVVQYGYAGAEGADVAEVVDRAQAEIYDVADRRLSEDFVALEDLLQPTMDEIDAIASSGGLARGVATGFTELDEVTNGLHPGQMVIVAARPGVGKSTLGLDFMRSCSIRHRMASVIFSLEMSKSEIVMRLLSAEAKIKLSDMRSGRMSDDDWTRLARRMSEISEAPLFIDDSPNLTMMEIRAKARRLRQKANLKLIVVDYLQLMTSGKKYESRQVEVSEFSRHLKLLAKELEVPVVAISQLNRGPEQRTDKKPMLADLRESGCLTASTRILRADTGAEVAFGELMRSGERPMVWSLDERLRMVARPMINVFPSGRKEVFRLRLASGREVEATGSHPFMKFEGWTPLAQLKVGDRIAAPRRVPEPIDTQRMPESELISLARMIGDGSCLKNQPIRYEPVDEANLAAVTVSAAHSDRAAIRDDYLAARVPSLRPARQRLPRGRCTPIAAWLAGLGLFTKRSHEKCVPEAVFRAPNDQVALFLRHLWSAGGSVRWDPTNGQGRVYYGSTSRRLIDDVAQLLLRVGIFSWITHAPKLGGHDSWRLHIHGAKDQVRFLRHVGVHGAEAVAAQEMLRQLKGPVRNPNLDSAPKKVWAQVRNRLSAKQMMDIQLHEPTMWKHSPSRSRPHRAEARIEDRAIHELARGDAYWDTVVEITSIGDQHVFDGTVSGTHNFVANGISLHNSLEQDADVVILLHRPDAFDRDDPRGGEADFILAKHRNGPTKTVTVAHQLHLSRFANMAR

[13] = biological target: T6, Protein RecA (Mycobacterium tuberculosis, UniProt P9WHJ3); test: Fluorescence Cell-Free Homogeneous Dose Retest to Identify Inhibitors of RecA-Intein Splicing Activity. [Related pubchem assays (depositor defined):AID2097, AID2223, AID489010, AID492950]; assay type: functional
T6 sequence (P9WHJ3 whole entry): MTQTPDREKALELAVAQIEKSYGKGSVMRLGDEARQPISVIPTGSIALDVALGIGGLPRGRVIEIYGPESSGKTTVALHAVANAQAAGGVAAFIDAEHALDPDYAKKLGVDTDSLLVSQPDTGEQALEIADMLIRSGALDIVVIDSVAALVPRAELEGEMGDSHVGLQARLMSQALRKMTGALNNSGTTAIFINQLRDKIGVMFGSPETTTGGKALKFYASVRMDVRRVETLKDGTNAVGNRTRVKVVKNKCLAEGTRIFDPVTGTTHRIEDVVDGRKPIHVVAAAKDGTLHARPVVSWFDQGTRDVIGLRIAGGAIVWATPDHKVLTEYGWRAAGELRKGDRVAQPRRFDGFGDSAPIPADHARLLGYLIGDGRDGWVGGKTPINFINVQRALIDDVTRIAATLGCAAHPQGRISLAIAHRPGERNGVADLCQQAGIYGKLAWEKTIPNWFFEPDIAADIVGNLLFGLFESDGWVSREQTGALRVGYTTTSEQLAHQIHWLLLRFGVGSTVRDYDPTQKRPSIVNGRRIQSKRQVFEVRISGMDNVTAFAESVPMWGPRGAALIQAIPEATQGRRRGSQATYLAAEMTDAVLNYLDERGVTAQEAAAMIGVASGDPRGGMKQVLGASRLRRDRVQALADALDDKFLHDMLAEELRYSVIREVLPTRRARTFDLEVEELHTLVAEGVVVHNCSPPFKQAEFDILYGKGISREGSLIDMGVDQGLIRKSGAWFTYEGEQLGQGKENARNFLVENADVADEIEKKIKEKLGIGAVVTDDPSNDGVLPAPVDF

| SMILES | IC50 [1] | IC50 [2] | IC50 [3] | IC50 [4] | IC50 [5] | IC50 [6] | IC50 [7] | IC50 [8] | IC50 [9] | IC50 [10] | IC50 [11] | AC50 [12] | EC50 [13] |
| --- | --- | --- | --- | --- | --- | --- | --- | --- | --- | --- | --- | --- | --- |
| CC1(C)[N+]([O-])=c2ccc([N+](=O)[O-])cc2=[N+]1[O-].NO | 11.7 µM (active) | 0.26 µM (active) | 22.1 µM (active) | 6.55 µM (active) |  |  |  |  |  |  |  |  |  |
| COC(=O)C1=C(c2ccccc2OCc2ccccc2)C[C@@H]2CC[C@H]1N2C(=O)NCCOc1ccccc1Cl |  |  |  |  | 3.71 µM (active) | > 66.2 µM (inactive) | > 16.6 µM (inactive) | 48.6 µM (inactive) | > 50 µM (inactive) | 3.9 µM (active) |  |  |  |
| Nc1ccc(N(CCO)CCO)cc1 | 88.3 µM (active) |  |  |  |  |  |  |  |  |  | > 80 µM (inactive) | 256 µM (active) | > 380 µM (inconclusive) |
| Cc1ccccc1NC(=O)C1CCCN1S(=O)(=O)c1ccccc1C(F)(F)F (stereo not given) |  |  |  |  | 0.352 µM (active) | > 66.2 µM (inactive) | 4.95 µM (active) | > 49.8 µM (inactive) | 2.34 µM (active) | 10.1 µM (inactive) |  |  |  |
